Data: patent publication US20120093951A1 (priority 2009, published 2012)
Where two headings read alike, the source gives them in different places.

Assays:
[1] = system: H1N1 serum subtype of swine influenza virus (SIV); assay type: in vivo, yellow chickens; settings: 10 mg/day once per day for 11 days
[2] = system: H1N1 subtype serum swine influenza virus; assay type: in vivo, yellow chickens; settings: 10 mg/day injected once per day for 7 days
[3] = system: swine influenza virus A/California/4/2009 and A/Hong Kong/xx/2008; assay type: cell-based, MDCK cells (Madin-Darby Canine Kidney Cells)

For `CC(N)C12CC3CC(CC(C3)C1)C2` (stereo not shown) [Group C, rimantadine], the “Death Rate” value ([1]; 40 infected chickens) was 62.5%^, the “Effective Rate” value ([1]; 40 infected chickens) was 37.5% and the “Number of Death” value ([1]; of 40 infected chickens) was 25. For the same compound, the “Death Rate” value ([2]; 30 infected chickens) was 63.3%^, the “Effective Rate” value ([2]; 30 infected chickens) was 36.6% and the “Number of Death” value ([2]; of 30 infected chickens) was 19.
With `CCOC(=O)C1=C[C@@H](OC(CC)CC)[C@H](NC(C)=O)[C@@H](N)C1` [Tamiflu, Oseltamivir phosphate] the “Number of Detectable viruses/Total Number” value ([3]; Day 2, Tamiflu 10 μmol/ml) was 1/2, the “Number of Detectable viruses/Total Number” value ([3]; Day 2, Tamiflu 100 μmol/ml) was 0/2 and the “Number of Detectable viruses/Total Number” value ([3]; Day 3, Tamiflu 10 μmol/ml) was 2/2. For the same compound, the “Number of Detectable viruses/Total Number” value ([3]; Day 3, Tamiflu 100 μmol/ml) was 2/2.
